According to publication PMC3261785 (Journal of Medicinal Chemistry, 2011):
Entries after “also recorded” stand apart in the source; their conditions may differ.

The molecules below were run against human A2AAR (Homo sapiens, UniProt P29274) (assay: Radioligand binding assay at A2AAR, membranes of HEK-293 cells, [3H]16). Conditions: comparison within the amino acid conjugate series and with parent 16.
Chain of human A2AAR (P29274 whole entry): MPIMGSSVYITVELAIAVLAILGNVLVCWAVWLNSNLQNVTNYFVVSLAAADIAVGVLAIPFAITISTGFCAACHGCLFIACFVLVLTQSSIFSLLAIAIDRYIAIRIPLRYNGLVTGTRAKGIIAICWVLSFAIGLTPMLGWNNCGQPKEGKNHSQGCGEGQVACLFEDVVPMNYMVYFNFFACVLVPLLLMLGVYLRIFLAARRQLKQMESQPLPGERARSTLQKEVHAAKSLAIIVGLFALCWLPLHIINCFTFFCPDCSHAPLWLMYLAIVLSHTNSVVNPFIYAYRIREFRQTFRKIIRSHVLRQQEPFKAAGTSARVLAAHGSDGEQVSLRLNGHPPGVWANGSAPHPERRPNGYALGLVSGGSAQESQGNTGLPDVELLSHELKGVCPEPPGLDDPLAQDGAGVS

Row | Compound | Relative A2AAR binding affinity (in words)
1 | CCNC(=O)[C@H]1O[C@@H](n2cnc3c(N)nc(NCCc4ccc(CCC(=O)N[C@H](Cc5c[nH]cn5)C(=O)O)cc4)nc32)[C@H](O)[C@@H]1O [Compound 42] | most potent; also recorded: some gain in affinity
2 | CCNC(=O)[C@H]1O[C@@H](n2cnc3c(N)nc(NCCc4ccc(CCC(=O)N[C@H](Cc5ccccc5)C(=O)O)cc4)nc32)[C@H](O)[C@@H]1O [Compound 38] | most potent; also recorded: some gain in affinity
3 | CCNC(=O)[C@H]1O[C@@H](n2cnc3c(N)nc(NCCc4ccc(CCC(=O)N[C@H](CCCNC(=N)N)C(=O)O)cc4)nc32)[C@H](O)[C@@H]1O [Compound 36] | some gain in affinity
